The values below come from US12534706B2, “Method for maturation of retinal tissue containing continuous epithelium” (RIKEN, priority 2017, dated 2026).

Experiment [1] has as its system cell aggregate containing a retinal tissue (CRX::Venus knock-in human ES cells). In words: Continuous epithelium rate of retinal tissue after adding a substance to the medium of culture method [B] (day 38 to 56). It counts as cell-based. Particulars: day 38 to day 54, 55 or 56. As to the method:
A cell aggregate containing a retinal tissue was prepared by the method described in “Kuwahara et al. Nat Commun 2015, 19(6), 6286” after modification in part. That is, the aforementioned cultured ES cells were individually dispersed using TrypLE Express (Invitrogen), and the individually dispersed human ES cells were suspended in 100 μL of a serum-free medium in a cell non-adhesive 96 well culture plate (SUMILON spheroid plate, SUMITOMO BAKELITE CO., LTD.) at 9×10^3 cells per well to allow rapid formation of aggregates, after which they were cultured at 37° C., 5% CO2. As the serum-free medium therefor, a serum-free medium obtained by adding 10% KSR, 450 μM 1-monothioglycerol, 1× Chemically defined lipid concentrate, 5 mg/mL BSA, 20 μM Y27632 to a 1:1 mixture of F-12 medium and IMDM medium was used. At 6 days after the start of suspension culture, BMP4 at a final concentration of 1.5 nM was added and suspension culture was continued. A half amount of the culture medium in the well was exchanged with the above-mentioned medium not supplemented with a BMP signal transduction pathway agonist every 3 or 4 days. A cell aggregate containing a retinal tissue at day 18 from the start of suspension culture was cultured in suspension in a serum-free medium containing 3 μM CHIR99021 and 5 μM SU5402 (DMEM/F12 medium supplemented with 1% N2 supplement) for 4 days, namely, until day 22 from the start of suspension culture. Thereafter, suspension culture was continued using the serum-containing medium. The serum-containing medium used then and the culture method are shown in the following [A] to [C]. The suspension culture of the cell aggregate containing the retinal tissue was continued until it was appropriately used for analysis and the like. • [A] From day 22 to day 56 from the start of suspension culture, suspension culture was performed using a medium obtained by adding 10% bovine calf serum, 1% N2 supplement, and 100 μM taurine to the DMEM/F12 medium. • [B] From day 22 to day 38 from the start of suspension culture, suspension culture was performed using a medium obtained by adding 10% bovine calf serum, 1% N2 supplement, and 100 μM taurine to the DMEM/F12 medium; and from day 38 to day 56 from the start of suspension culture, suspension culture was performed using a 1:3 mixed medium of a medium obtained by adding 10% bovine calf serum, 1% N2 supplement, and 100 μM taurine to the DMEM/F12 medium and a medium obtained by adding 10% bovine calf serum, 2% B27 supplement, and 100 μM taurine to the Neurobasal medium. • [C] From day 22 to day 56 from the start of suspension culture, suspension culture was performed using a medium obtained by adding 10% bovine calf serum, 2% B27 supplement, and 100 μM taurine to the Neurobasal medium (manufactured by Thermo Scientific, 21103049).
Thus, among the substances contained in the medium used in the culture method [B] from day 38 to day 56 from the start of suspension culture in the culturing method [B], a substance that may greatly affect cell differentiation, cell protection, and cell death of retinal tissues was added to the medium used in the culture method [A], and whether it contributes to the improvement of continuous epithelium rate was studied. […]

For experiment [2] the test system is unchanged. Nature of the experiment: Continuous epithelium rate of retinal tissue after adding a substance to the medium of culture method [A]. Particulars: day 38 to day 54, 55 or 56. The class given is cell-based. As to the method: A cell aggregate containing a retinal tissue was prepared by the method described in “Kuwahara et al. Nat Commun 2015, 19(6), 6286” after modification in part. That is, the aforementioned cultured ES cells were individually dispersed using TrypLE Express (Invitrogen), and the individually dispersed human ES cells were suspended in 100 μL of a serum-free medium in a cell non-adhesive 96 well culture plate (SUMILON spheroid plate, SUMITOMO BAKELITE CO., LTD.) at 9×10^3 cells per well to allow rapid formation of aggregates, after which they were cultured at 37° C., 5% CO2. As the serum-free medium therefor, a serum-free medium obtained by adding 10% KSR, 450 μM 1-monothioglycerol, 1× Chemically defined lipid concentrate, 5 mg/mL BSA, 20 μM Y27632 to a 1:1 mixture of F-12 medium and IMDM medium was used. At 6 days after the start of suspension culture, BMP4 at a final concentration of 1.5 nM was added and suspension culture was continued. A half amount of the culture medium in the well was exchanged with the above-mentioned medium not supplemented with a BMP signal transduction pathway agonist every 3 or 4 days. A cell aggregate containing a retinal tissue at day 18 from the start of suspension culture was cultured in suspension in a serum-free medium containing 3 μM CHIR99021 and 5 μM SU5402 (DMEM/F12 medium supplemented with 1% N2 supplement) for 4 days, namely, until day 22 from the start of suspension culture. Thereafter, suspension culture was continued using the serum-containing medium. The serum-containing medium used then and the culture method are shown in the following [A] to [C]. The suspension culture of the cell aggregate containing the retinal tissue was continued until it was appropriately used for analysis and the like. • [A] From day 22 to day 56 from the start of suspension culture, suspension culture was performed using a medium obtained by adding 10% bovine calf serum, 1% N2 supplement, and 100 μM taurine to the DMEM/F12 medium. • [B] From day 22 to day 38 from the start of suspension culture, suspension culture was performed using a medium obtained by adding 10% bovine calf serum, 1% N2 supplement, and 100 μM taurine to the DMEM/F12 medium; and from day 38 to day 56 from the start of suspension culture, suspension culture was performed using a 1:3 mixed medium of a medium obtained by adding 10% bovine calf serum, 1% N2 supplement, and 100 μM taurine to the DMEM/F12 medium and a medium obtained by adding 10% bovine calf serum, 2% B27 supplement, and 100 μM taurine to the Neurobasal medium. • [C] […]

`Cc1cn([C@H]2C[C@H](O)[C@@H](CO)O2)c(=O)[nH]c1=O` [thymidine]: the continuous epithelium rate result in experiment [1] (final concentration 1.5 μM in culture method [B] medium) is “contributed to a decrease”.
On to `CSCC[C@H](N)C(=O)O` [methionine], for which the continuous epithelium rate entry in experiment [2] (final concentration 26.81 mg/L in culture method [A] medium, vs nothing added) is “increased”.
On to `CC(=O)[C@H]1CC[C@H]2[C@@H]3CCC4=CC(=O)CC[C@]4(C)[C@H]3CC[C@]12C` [progesterone, reference compound], for which the continuous epithelium rate result in experiment [2] (final concentration 100 nM added to culture method [A] medium, vs nothing added (progesterone)) is listed as “similarly decreased”.
As for `N[C@@H](CC(=O)O)C(=O)O` [L-aspartic acid], the continuous epithelium rate entry in experiment [1] (L-aspartic acid alone, final concentration 50 μM in culture method [B] medium) is listed as “decreased the continuous epithelium rate slightly, but the difference was not significant”.
Regarding `N[C@@H](CCC(=O)O)C(=O)O` [L-glutamic acid], the continuous epithelium rate entry in experiment [1] (L-glutamic acid alone, final concentration 50 μM in culture method [B] medium) is “contributed to the decrease”.
As to vitamin B12, in experiment [1] (final concentration 0.68 mg/L in culture method [B] medium), the continuous epithelium rate result is “contributed to a decrease”.
As to `O=c1[nH]cnc2nc[nH]c12` [hypoxanthine], in experiment [1] (final concentration 15 μM in culture method [B] medium), the continuous epithelium rate result was “contributed to a decrease”.
On to `C[C@]12C[C@H](O)[C@H]3[C@@H](CCC4=CC(=O)CC[C@@]43C)[C@@H]1CC[C@@H]2C(=O)CO` [corticosterone, reference compound], for which, in experiment [2] (final concentration 100 nM added to culture method [A] medium, vs nothing added (corticosterone)), the continuous epithelium rate result was “increased”.
Turning to `N[C@@H](CS)C(=O)O` [cysteine], the continuous epithelium rate result in experiment [2] (final concentration 0.22 mM in culture method [A] medium, vs nothing added) is on record as “decreased”.
